Results on two molecules are retold here after patent US8921273B2, “Substituted pyridazines having herbicidal action” (BASF SE, priority 2010, dated 2014).

What all share (assay): greenhouse herbicidal activity, post-emergence treatment
Conditions in all cases: application rate 0.5 kg/ha, scale from 0 to 100

In test [1] the test system is CHEAL. The test is classed as in vivo, Chenopodium album. The source says:
(§1) The seeds of the test plants were sown separately for each species. For the post-emergence treatment, the test plants were first grown to a height of 3 to 15 cm, depending on the plant habit, and only then treated with the active ingredients which had been suspended or emulsified in water. For this purpose, the test plants were either sown directly and grown in the same containers, or they were first grown separately as seedlings and transplanted into the test containers a few days prior to treatment. Depending on the species, the plants were kept at 10-25° C. or 20-35° C. The test period extended over 2 to 4 weeks. During this time, the plants were tended, and their response to the individual treatments was evaluated. Evaluation was carried out using a scale from 0 to 100. 100 means no emergence of the plants, or complete destruction of at least the aerial moieties, and 0 means no damage, or normal course of growth. A good herbicidal activity is given at values of at least 70 and a very good herbicidal activity is given at values of at least 85. The plants used in the greenhouse experiments belonged to the following species: [table]

Test [2] relates to ECHCG. The class given is in vivo, Echinochloa crus-galli.
Source text: as §1

Test [3] has as its system AMARE. The class given is in vivo, Amaranthus retroflexus.
Source text: as §1

In test [4] the test system is GALAP. The class given is in vivo, Galium aparine.
Source text: as §1

As for `O=c1c(-c2cc(Cl)cc(N3CCOCC3)c2C(F)(F)F)c(O)c2nccnc2n1CC(F)F` [I-1, 7-[5-chloro-3-morpholino-2-(trifluoromethyl)phenyl]-5-(2,2-difluoroethyl)-8-hydroxy-pyrido[2,3-b]pyrazin-6-one], the “herbicidal activity against CHEAL” value in test [1] was “very good herbicidal activity (a very good herbicidal activity is given at values of at least 85)”. In addition, the “herbicidal activity against ECHCG” value in test [2] was “very good herbicidal activity (a very good herbicidal activity is given at values of at least 85)”.
Regarding `O=c1c(-c2cccc(C3=NOCC3)c2C(F)(F)F)c(O)c2nccnc2n1CC(F)F` [I-2, 5-(2,2-difluoroethyl)-7-[3-(4,5-dihydroisoxazol-3-yl)-2-(trifluoromethyl)phenyl]-8-hydroxy-pyrido[2,3-b]pyrazin-6-one], the “herbicidal activity against AMARE” value in test [3] is reported as “very good herbicidal activity (a very good herbicidal activity is given at values of at least 85)”. Also, the “herbicidal activity against GALAP” value in test [4] is “very good herbicidal activity (a very good herbicidal activity is given at values of at least 85)”.
